The values that follow come from patent US20200270225A1, “Chiral Diacylhydrazine Ligands for Modulating the Expression of Exogenous Genes via an Ecdysone Receptor Complex” (Intrexon Corporation, priority 2007, published 2020).

As usually defined, the EC50 is the concentration giving half of the maximal effect.

Series [1] has as its target T1, [V390I/Y410E/E274V]-CfEcR (Choristoneura fumiferana, UniProt O77240).
T1 construct: assay construct b835
It counts as cell-based. Conditions: 3T3 Cells; for RMFI (relative maximum fold induction): relative to GS-E ligand. The method, then: (§1) Cellular gene switch assays were performed by transiently transfecting the following constructs in mouse embryonic fibroblast cells (NIH3T3). The wild-type D, E and F domains from Choristoneura fumiferana EcR or its V390I/Y410E/E274V mutant were fused to GAL4-DBD and placed under the control of the CMV promoter in the pBIND vector (Promega Corporation, Madison, Wis., USA). The DEF domains of EcRs shown were amplified using primers designed based on 20-25 nt sequences at the 5′ and 3′ ends. Restriction enzyme sites EcoR I/BamH I and Xba I were added to 5′ and 3′ primers respectively. The PCR products were digested with appropriate restriction enzymes and cloned into pBIND vector. The EcR LBDs cloned into pBIND vector were verified by sequencing. A chimeric RXR from Homo sapiens RXRP and Locusta migratoria RXR, fused to VP16-AD and placed under the control of an SV40e promoter, was constructed as previously described (Kumar P & Katakam A in Gene Transfer, Friedmann T and Rossi J, eds, pp. 643-651 (2007), Cold Spring Harbor Laboratory Press, Cold Spring Harbor, N.Y.). The inducible luciferase reporter plasmid pFRLuc (Stratagene Cloning Systems, La Jolla, Calif., USA), contains five copies of the GAL4 response element and a synthetic minimal promoter.
(§2) NIH3T3 cells were maintained at 37′C and 5% CO2 in Dulbecco's modified Eagle's medium (DMEM) supplemented with 10% bovine calf serum, both obtained from Mediatech Inc., Manassas, Va. Cells were planted in a 96-well plate at a density of 2,500 cells/well in 50 μL of growth medium. The following day cells were first treated with 35 μL of serum-free DMEM containing dimethyl sulfoxide (DMSO; control) or a DMSO solution containing ligand. Cells were then transfected with 15 μl of serum-free DMEM containing 0.04 μg of EcR construct, 0.04 ug of RXR construct, and 0.16 μg of luciferase reporter construct per well, using SuperFect™ transfection reagent (Qiagen Inc., Valencia, Calif., USA) according to the manufacturer's instructions. Ligands were tested at 8 doses from 0.01-33 μM and the final DMSO concentration was 0.33% in both control and treatment wells. After a 48 hour post-treatment and transfection incubation, the cells were assayed for luciferase activity using the Bright-Glo™ Luciferase Assay System (Promega Corporation, Madison, Wis., USA) following the manufacturer's instructions. EC50 values were measured minimally in duplicate.
(§3) Luciferase reporter gene expression was measured 48 h after cell treatment using Bright-Glo™ Luciferase Assay System from Promega (E2650). Luminescence was detected at room temperature using a Dynex MLX microtiter plate luminometer.
(§4) Each assay was conducted in two separate wells, and the two values were averaged. Fold inductions were calculated by dividing relative light units (“RLU”) in ligand treated cells with RLU in DMSO treated cells. EC50s were calculated from dose response data using a three-parameter logistic model. Relative Max FI was determined as the maximum fold induction of the tested ligand (an embodiment of the invention) observed at any concentration relative to the maximum fold induction of GS™-E ligand (3,5-dimethyl-benzoic acid N-tert-butyl-N′-(2-ethyl-3-methoxy-benzoyl)-hydrazide) observed at any concentration.

For series [2], the target named is wild-type Choristoneura fumiferana EcR (D, E and F domains) (Choristoneura fumiferana, UniProt O77240). It counts as cell-based. The settings on record: WT-CtEcR, 3T3 Cells; for RMFI (relative maximum fold induction): relative to GS-E ligand. The method, then:
as §1, §2, §3, §4

Like-named read-outs stand apart in the source and are kept apart here. A value given as a limit tells only on which side of the number the result lay.

Regarding `CCC[C@H](N(NC(=O)c1cc(C)oc1C)C(=O)c1cc(C)cc(C)c1)C(C)(C)C` [Example 44, (S)-3,5-Dimethyl-benzoic acid N-(1-tert-butyl-butyl)-N′-(2,5-dimethyl-furan-3-carbonyl)-hydrazide], in series [1] (S), the EC50 is around 2000 nM and the “RMFI (relative maximum fold induction)” value was determined as 0.49. Further, in series [2] (S), the EC50 came to 7060 nM and the “RMFI (relative maximum fold induction)” value was found to be 0.32.
For `CCCC(N(NC(=O)c1cccc(OC)c1CC)C(=O)c1cc(C)cc(C)c1)C(C)(C)C` (racemic) [rac-2], the EC50 in series [1] (rac, read-out: EC50) was 3.9 nM; in series [2] (rac, read-out: EC50) it was around 100 nM. Further, the “RMFI (relative maximum fold induction)” value in series [1] (rac) turned out to be 0.85; in series [2] (rac), 0.60.
On the same counts, the results for `CCCC(N(NC(=O)c1ccc2ccccc2c1)C(=O)c1cc(C)cc(C)c1)C(C)(C)C` (racemic) [rac-24] are 61 nM, around 500 nM, 0.62 and 0.44.
Consider `CCC[C@H](N(NC(=O)c1ccccc1C)C(=O)c1cc(C)cc(C)c1)C(C)(C)C` [Example 33, (S)-3,5-Dimethyl-benzoic acid N-(1-tert-butyl-butyl)-N′-(2-methyl-benzoyl)-hydrazide], for which, in series [1] (S), the EC50 is around 400 nM and the “RMFI (relative maximum fold induction)” value worked out at 0.48. For the same molecule, in series [2] (S), the EC50 was around 3300 nM and the “RMFI (relative maximum fold induction)” value stood at 0.20.
Turning to `CCCC(N(NC(=O)c1cccc(OC)c1)C(=O)c1cc(C)cc(C)c1)C(C)(C)C` (racemic) [rac-9], the 50% effective concentration (EC50) in series [1] (rac, read-out: EC50) turned out to be 7.1 nM; in series [2] (rac, read-out: EC50) it was 304 nM. For the same molecule, the “RMFI (relative maximum fold induction)” value in series [1] (rac) worked out at 0.63; in series [2] (rac) it was 0.84.
As to `C=CC[C@H](C1CCCCC1)N(NC(=O)c1cccc(OC)c1C)C(=O)c1cc(C)cc(C)c1` [Example 60, (R)-3,5-Dimethyl-benzoic acid N-(1-cyclohexyl-but-3-enyl)-N′-(3-methoxy-2-methyl-benzoyl)-hydrazide], the results for the EC50 in series [1] (R) and in series [2] (R) were 746 nM and around 2000 nM, respectively. Moreover, the “RMFI (relative maximum fold induction)” value is reported as 0.78 in series [1] (R) and 0.62 in series [2] (R).
Consider `CCC[C@@H](N(NC(=O)c1cccs1)C(=O)c1cc(C)cc(C)c1)C(C)(C)C` [Example 25, (R)-3,5-Dimethyl-benzoic acid N-(1-tert-butyl-butyl)-N′-(thiophene-2-carbonyl)-hydrazide], for which the results for the EC50 in series [1] (R) and in series [2] (R) were around 20 nM and 432 nM, respectively. The “RMFI (relative maximum fold induction)” value in series [1] (R) stood at 0.72; in series [2] (R), 0.42.
The like results for `Cc1cc(C)cc(C(=O)N(NC(=O)OCc2ccccc2)[C@H](CCCO)C(C)(C)C)c1` [Example 64, (R)—N′-(1-tert-Butyl-4-hydroxy-butyl)-N′-(3,5-dimethyl-benzoyl)-hydrazine carboxylic Acid benzyl ester] were, in that order, around 8000 nM, above 33000 nM, 0.33 and 0.02.
Regarding `CCC[C@H](N(NC(=O)c1ccccc1Br)C(=O)c1cc(C)cc(C)c1)C(C)(C)C` [Example 36, (S)-3,5-Dimethyl-benzoic acid N′-(2-bromo-benzoyl)-N-(1-tert-butyl-butyl)-hydrazide], in series [1] (S), it took 433 nM to reach a half-maximal effect (EC50) and the “RMFI (relative maximum fold induction)” value stood at 0.36. For the same molecule, in series [2] (S), the EC50 is around 3300 nM and the “RMFI (relative maximum fold induction)” value is recorded as 0.11.
Regarding `C=CC[C@@H](CCc1ccccc1)N(NC(=O)c1ccc(CC)cc1)C(=O)c1cc(C)cc(C)c1` [Example 62, (R)-3,5-Dimethyl-benzoic Acid N′-(4-ethyl-benzoyl)-N-(1-phenethyl-but-3-enyl)-hydrazide], in series [1] (R), the midpoint of the response, the EC50, lay at 1990 nM and the “RMFI (relative maximum fold induction)” value is 0.54. Also, in series [2] (R), the EC50 was 3090 nM and the “RMFI (relative maximum fold induction)” value turned out to be 0.14.
Consider `CCCC(N(NC(=O)c1ccc(OC)cc1)C(=O)c1cc(C)cc(C)c1)C(C)(C)C` (racemic) [rac-13], for which the EC50 was around 5 nM in series [1] (rac, read-out: EC50) and around 100 nM in series [2] (rac, read-out: EC50). Further, the results for the “RMFI (relative maximum fold induction)” value in series [1] (rac) and in series [2] (rac) were 0.71 and 0.54, respectively.
For the molecule `CCC[C@H](N(NC(=O)c1ccc(CC)cc1)C(=O)c1cc(C)cc(C)c1)C(C)(C)C` [Example 39, (S)-3,5-Dimethyl-benzoic acid N-(1-tert-butyl-butyl)-N′-(4-ethyl-benzoyl)-hydrazide], the EC50 was around 20 nM in series [1] (S) and 418 nM in series [2] (S). Besides, the entries for the “RMFI (relative maximum fold induction)” value in series [1] (S) and in series [2] (S) were 0.70 and 0.29, respectively.
As to `CCC[C@@H](N(NC(=O)c1cccnc1Cl)C(=O)c1cc(C)cc(C)c1)C(C)(C)C` [Example 27, (R)-3,5-Dimethyl-benzoic acid N-(1-tert-butyl-butyl)-N′-(2-chloro-pyridine-3-carbonyl)-hydrazide], the values for the EC50 in series [1] (R) and in series [2] (R) were 7 nM and 95.2 nM, respectively. The results for the “RMFI (relative maximum fold induction)” value in series [1] (R) and in series [2] (R) were 0.73 and 0.70, respectively.
Turning to `CCC[C@H](C1CCCCC1)N(NC(=O)c1ccc(CC)cc1)C(=O)c1cc(C)cc(C)c1` [Example 55, (R)-3,5-Dimethyl-benzoic acid N-(1-cyclohexyl-butyl)-N′-(4-ethyl-benzoyl)-hydrazide], the EC50 in series [1] (R) was around 70 nM; in series [2] (R), around 2000 nM. Also, the figures for the “RMFI (relative maximum fold induction)” value in series [1] (R) and in series [2] (R) were 0.42 and 0.26, respectively.
For `CCCC(N(NC(=O)c1cc(F)cc(F)c1)C(=O)c1cc(C)cc(C)c1)C(C)(C)C` (racemic) [rac-18], the EC50 in series [1] (rac, read-out: EC50) was around 3 nM; in series [2] (rac, read-out: EC50) it was 30.5 nM. The “RMFI (relative maximum fold induction)” value in series [1] (rac) was 1.00; in series [2] (rac), 0.26.
In the case of `CCCC(N(NC(=O)c1cc(OC)c(C)c(OC)c1)C(=O)c1cc(C)cc(C)c1)C(C)(C)C` (racemic) [rac-19], the EC50 in series [1] (rac, read-out: EC50) was 3930 nM; in series [2] (rac, read-out: EC50) it was above 10000 nM. Moreover, in series [1] (rac), the “RMFI (relative maximum fold induction)” value is given as 0.15.
Turning to `CCCC(N(NC(=O)c1cc(C)oc1C)C(=O)c1cc(C)cc(C)c1)C(C)(C)C` (racemic) [rac-26], the EC50 turned out to be 84 nM in series [1] (rac, read-out: EC50) and 2140 nM in series [2] (rac, read-out: EC50). The “RMFI (relative maximum fold induction)” value in series [1] (rac) came to 0.97; in series [2] (rac), 0.76.
In the case of `CCCC(N(NC(=O)c1ccc(Cl)nc1)C(=O)c1cc(C)cc(C)c1)C(C)(C)C` (racemic) [rac-28], the EC50 in series [1] (rac, read-out: EC50) came to 47 nM; in series [2] (rac, read-out: EC50), 470 nM. Also, the “RMFI (relative maximum fold induction)” value in series [1] (rac) is recorded as 0.68; in series [2] (rac) it was 0.70.
As for `CCC[C@H](N(NC(=O)c1ccccc1F)C(=O)c1cc(C)cc(C)c1)C(C)(C)C` [Example 34, (S)-3,5-Dimethyl-benzoic acid N-(1-tert-butyl-butyl)-N′-(2-fluoro-benzoyl)-hydrazide], in series [1] (S), the EC50 stood at 86 nM and the “RMFI (relative maximum fold induction)” value was found to be 0.64. Besides, in series [2] (S), the response was half-maximal at 529 nM (EC50) and the “RMFI (relative maximum fold induction)” value is reported as 0.41.
Take `CCCC(N(NC(=O)c1c(Cl)cccc1Cl)C(=O)c1cc(C)cc(C)c1)C(C)(C)C` (racemic) [rac-3]: the EC50 in series [1] (rac, read-out: EC50) worked out at 12.2 nM; in series [2] (rac, read-out: EC50) it was 100 nM. Also, the “RMFI (relative maximum fold induction)” value in series [1] (rac) was determined as 0.97.
